Active and inactive are the calls of the source. The calls are words filed in the database; no cut-off is given here.
Assays:
[1] = system: PANC-1; test: Cytotoxicity against human PANC-1 cells assessed as inhibition of cell growth incubated for 72 hrs by SRB assay; assay type: functional, cell-based; details: PANC-1, 72 h
[2] = system: PANC-1; test: Induction of apoptosis in human PANC-1 cells assessed as viable cells at 5 uM incubated for 24 hrs by annexinV-FITC and PI staining based flow cytometry analysis (reference value: 89.5 %); assay type: functional; details: read-out: Activity
[3] = system: PANC-1; test: Induction of apoptosis in human PANC-1 cells assessed as viable cells at 2.50 uM incubated for 24 hrs by annexinV-FITC and PI staining based flow cytometry analysis (reference value: 89.5 %); assay type: functional; details: read-out: Activity
[4] = system: PANC-1; test: Induction of apoptosis in human PANC-1 cells assessed as viable cells at 1.25 uM incubated for 24 hrs by annexinV-FITC and PI staining based flow cytometry analysis (reference value: 89.5 %); assay type: functional; details: read-out: Activity
[5] = system: PANC-1; test: Antiinvasive activity in human PANC-1 cells assessed as decrease in cell invasion at 0.94 to 3.75 uM incubated for 24 hrs by crystal violet staining based transwell assay; assay type: functional; details: dose 0.94-3.75 µM
[6] = system: ASPC1; test: Upregulation of PARP expression in human ASPC1 cells incubated for 24 hrs in presence of gemcitabine by Western blot analysis; assay type: functional, cell-based
[7] = system: ASPC1; test: Cytotoxicity against human ASPC1 cells assessed as inhibition of cell growth incubated for 72 hrs by SRB assay; assay type: functional, cell-based; details: ASPC1, 72 h
[8] = system: MDA-MB-231; test: Cytotoxicity against human MDA-MB-231 cells assessed as inhibition of cell growth incubated for 72 hrs by SRB assay; assay type: functional, cell-based; details: MDA-MB-231, 72 h
[9] = system: BXPC-3; test: Cytotoxicity against human BXPC-3 cells assessed as inhibition of cell growth incubated for 72 hrs by SRB assay; assay type: functional, cell-based; details: BXPC-3, 72 h
[10] = system: ASPC1; test: Cytotoxicity against human ASPC1 cells assessed as inhibition of cell proliferation at 0.94 to 30 uM by SRB assay; assay type: functional, cell-based; details: dose 0.94-30 µM, time 24-72 hrs, TDE = time-dependent effect
[11] = system: PANC-1; test: Cytotoxicity against human PANC-1 cells assessed as inhibition of cell proliferation at 0.94 to 30 uM by SRB assay; assay type: functional, cell-based; details: dose 0.94-30 µM, time 24-72 hrs, TDE = time-dependent effect
[12] = target: Epidermal growth factor receptor (Homo sapiens) (UniProt P00533); test: Inhibition of EGFR downstream signalling in human ASPC1 cells assessed as reduction of STAT3 phosphorylation upto 5 uM incubated for 24 hrs by Western blot analysis; assay type: cell-based
[13] = target: Epidermal growth factor receptor (Homo sapiens) (UniProt P00533); test: Inhibition of EGFR downstream signalling in human ASPC1 cells assessed as reduction of Akt phosphorylation upto 5 uM incubated for 24 hrs by Western blot analysis; assay type: cell-based
[14] = target: Epidermal growth factor receptor (Homo sapiens) (UniProt P00533); test: Inhibition of EGFR downstream signalling in human PANC-1 cells assessed as reduction of STAT3 phosphorylation upto 5 uM incubated for 24 hrs by Western blot analysis; assay type: cell-based
[15] = target: Epidermal growth factor receptor (Homo sapiens) (UniProt P00533); test: Inhibition of EGFR downstream signalling in human PANC-1 cells assessed as reduction of Akt phosphorylation upto 5 uM incubated for 24 hrs by Western blot analysis; assay type: cell-based
[16] = system: ASPC1; test: Induction of apoptosis in human ASPC1 cells assessed as viable cells at 1.25 uM incubated for 24 hrs by annexinV-FITC and PI staining based flow cytometry analysis (reference value: 96.0 %); assay type: functional; details: read-out: Activity
[17] = system: ASPC1; test: Induction of apoptosis in human ASPC1 cells assessed as viable cells at 2.50 uM incubated for 24 hrs by annexinV-FITC and PI staining based flow cytometry analysis (reference value: 96.0 %); assay type: functional; details: read-out: Activity
[18] = system: ASPC1; test: Induction of apoptosis in human ASPC1 cells assessed as viable cells at 5 uM incubated for 24 hrs by annexinV-FITC and PI staining based flow cytometry analysis (reference value: 96.0 %); assay type: functional; details: read-out: Activity
[19] = system: ASPC1; test: Induction of apoptosis in human ASPC1 cells assessed as early apoptotic cells at 1.25 uM incubated for 24 hrs by annexinV-FITC and PI staining based flow cytometry analysis (reference value: 1.56 %); assay type: functional
[20] = system: ASPC1; test: Induction of apoptosis in human ASPC1 cells assessed as early apoptotic cells at 2.50 uM incubated for 24 hrs by annexinV-FITC and PI staining based flow cytometry analysis (reference value: 1.56 %); assay type: functional; details: dose 2.5 µM
[21] = system: ASPC1; test: Induction of apoptosis in human ASPC1 cells assessed as early apoptotic cells at 5 uM incubated for 24 hrs by annexinV-FITC and PI staining based flow cytometry analysis (reference value: 1.56 %); assay type: functional
[22] = system: ASPC1; test: Induction of apoptosis in human ASPC1 cells assessed as late apoptotic cells at 1.25 uM incubated for 24 hrs by annexinV-FITC and PI staining based flow cytometry analysis (reference value: 2.18 %); assay type: functional
[23] = system: ASPC1; test: Induction of apoptosis in human ASPC1 cells assessed as late apoptotic cells at 2.50 uM incubated for 24 hrs by annexinV-FITC and PI staining based flow cytometry analysis (reference value: 2.18 %); assay type: functional; details: dose 2.5 µM
[24] = system: ASPC1; test: Induction of apoptosis in human ASPC1 cells assessed as late apoptotic cells at 5 uM incubated for 24 hrs by annexinV-FITC and PI staining based flow cytometry analysis (reference value: 2.18 %); assay type: functional
[25] = system: ASPC1; test: Induction of apoptosis in human ASPC1 cells assessed as necrotic cells at 1.25 uM incubated for 24 hrs by annexinV-FITC and PI staining based flow cytometry analysis (reference value: 0.27 %); assay type: functional
[26] = system: ASPC1; test: Induction of apoptosis in human ASPC1 cells assessed as necrotic cells at 2.50 uM incubated for 24 hrs by annexinV-FITC and PI staining based flow cytometry analysis (reference value: 0.27 %); assay type: functional; details: dose 2.5 µM
[27] = system: ASPC1; test: Induction of apoptosis in human ASPC1 cells assessed as necrotic cells at 5 uM incubated for 24 hrs by annexinV-FITC and PI staining based flow cytometry analysis (reference value: 0.27 %); assay type: functional
[28] = system: PANC-1; test: Induction of apoptosis in human PANC-1 cells assessed as early apototic cells at 1.25 uM incubated for 24 hrs by annexinV-FITC and PI staining based flow cytometry analysis (reference value: 4.66 %); assay type: functional
[29] = system: PANC-1; test: Induction of apoptosis in human PANC-1 cells assessed as early apototic cells at 2.50 uM incubated for 24 hrs by annexinV-FITC and PI staining based flow cytometry analysis (reference value: 4.66 %); assay type: functional; details: dose 2.5 µM
[30] = system: PANC-1; test: Induction of apoptosis in human PANC-1 cells assessed as early apototic cells at 5 uM incubated for 24 hrs by annexinV-FITC and PI staining based flow cytometry analysis (reference value: 4.66 %); assay type: functional
[31] = system: PANC-1; test: Induction of apoptosis in human PANC-1 cells assessed as late apototic cells at 1.25 uM incubated for 24 hrs by annexinV-FITC and PI staining based flow cytometry analysis (reference value: 5.71 %); assay type: functional

Epidermal growth factor receptor (Homo sapiens), sequence (P00533 whole entry): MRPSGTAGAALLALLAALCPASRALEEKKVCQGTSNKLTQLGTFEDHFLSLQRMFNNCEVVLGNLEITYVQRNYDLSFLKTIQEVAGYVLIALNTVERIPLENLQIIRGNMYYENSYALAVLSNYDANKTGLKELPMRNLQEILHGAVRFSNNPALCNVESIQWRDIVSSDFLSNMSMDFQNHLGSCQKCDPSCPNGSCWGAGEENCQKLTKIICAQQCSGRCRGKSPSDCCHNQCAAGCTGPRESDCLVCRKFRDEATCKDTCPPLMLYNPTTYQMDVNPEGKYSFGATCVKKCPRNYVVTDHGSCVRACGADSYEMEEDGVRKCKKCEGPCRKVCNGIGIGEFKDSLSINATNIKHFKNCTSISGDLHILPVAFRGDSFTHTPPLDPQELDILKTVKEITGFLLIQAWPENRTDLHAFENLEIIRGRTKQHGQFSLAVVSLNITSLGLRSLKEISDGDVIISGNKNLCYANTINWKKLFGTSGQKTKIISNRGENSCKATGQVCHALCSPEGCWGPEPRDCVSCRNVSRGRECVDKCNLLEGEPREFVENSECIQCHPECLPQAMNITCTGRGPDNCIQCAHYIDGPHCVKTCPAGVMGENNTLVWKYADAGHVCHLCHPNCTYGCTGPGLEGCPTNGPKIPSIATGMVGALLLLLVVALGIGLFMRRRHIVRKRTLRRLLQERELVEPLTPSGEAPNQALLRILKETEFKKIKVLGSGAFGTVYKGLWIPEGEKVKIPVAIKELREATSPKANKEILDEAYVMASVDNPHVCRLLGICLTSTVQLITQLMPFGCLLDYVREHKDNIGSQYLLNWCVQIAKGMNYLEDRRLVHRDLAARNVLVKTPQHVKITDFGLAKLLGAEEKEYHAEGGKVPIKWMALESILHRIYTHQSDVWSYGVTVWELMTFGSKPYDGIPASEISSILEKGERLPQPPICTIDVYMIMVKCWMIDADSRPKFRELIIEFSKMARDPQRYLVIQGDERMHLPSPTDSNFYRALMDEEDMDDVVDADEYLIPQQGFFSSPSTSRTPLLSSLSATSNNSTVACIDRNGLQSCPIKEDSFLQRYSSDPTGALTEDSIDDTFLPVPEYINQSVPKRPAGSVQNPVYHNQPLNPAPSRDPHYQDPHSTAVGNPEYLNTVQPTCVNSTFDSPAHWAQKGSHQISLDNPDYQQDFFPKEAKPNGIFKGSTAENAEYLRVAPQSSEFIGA

COC(=O)CCCCCCC/C=C/C(=O)OC[C@@]1(C)CCC[C@@]2(C)[C@H]1[C@H](OC(=O)c1ccc([N+](=O)[O-])cc1)C=C1C(=O)OC[C@@]12O
IC50 [1]: 4.2 µM | viability at 5 µM [2]: 69.6% | viability at 2.5 µM [3]: 80.6% | viability at 1.25 µM [4]: 90.7% | Activity [5]: Active | Activity [6]: Active | IC50 [7]: 2300 nM | IC50 [8]: 22.9 µM | IC50 [9]: 4.88 µM | Activity [10]: Tde | Activity [11]: Tde | inhibition [12]: Active | inhibition [13]: Active | inhibition [14]: Active | inhibition [15]: Active | viability at 1.25 µM [16]: 90.1% | viability at 2.5 µM [17]: 87.7% | viability at 5 µM [18]: 85.1% | Activity [19]: 5.77% | Activity [20]: 7.03% | Activity [21]: 2.98% | Activity [22]: 3.96% | Activity [23]: 4.92% | Activity [24]: 10.1% | Activity [25]: 0.2% | Activity [26]: 0.38% | Activity [27]: 1.79% | Activity [28]: 5.99% | Activity [29]: 5.58% | Activity [30]: 7.12% | Activity [31]: 3.09%

Source: ChEMBL document CHEMBL5120812, “Cytotoxic Nitrobenzoyl Sesquiterpenoids from an Antarctica Sponge-Derived Aspergillus insulicola” (J Nat Prod, 2022)
